Results from article PMC2949846 (Virology Journal, 2010).
No end group written: not given here.

Test: physchem
Conditions: water

Sequence | solubility
EAKSSIAKHFSLWKSYADADIKNSENK [A] | 2000 µg/mL
FHNSNSRILFNQENNNFMYS [B] | 2000 µg/mL
